Here are results for 1 molecule from PMC12220852, “An adamantane‐based ligand as a novel chemical tool for thermosensory TRPM8 channel therapeutic modulation” (The Febs Journal, 2025).

Entries after “also recorded” stand apart in the source; their conditions may differ.

The target of assay [1] is T1, recombinant human TRPM8 stably expressed in HEK293 cells (hTRPM8) (Homo sapiens, UniProt Q7Z2W7).
T1 construct: expressed in transfected cells
The assay can be described thus: Ca2+ microfluorimetry screen for agonist/antagonist activity in hTRPM8-HEK293 cells. It is filed as cell-based. From the text:
We first evaluated the series of compounds 20–29 synthesized using the Passerini‐Adamantane reaction. All compounds were screened for channel agonism and antagonism on recombinant human TRPM8 stably expressed in HEK293 cells (hTRPM8‐HEK293) with Ca^2+ microfluorimetry. […] Compound‐induced TRPM8‐mediated Ca^2+ influx was confirmed using untransfected HEK293 cells and the channel blocker AMTB. […] The concentration of compounds to reach half of channel activation (EC50) or to block half‐channel activity evoked by WS‐12 (IC50) are reported in Table 1, along with the percentage of maximal activation or blockade (Efficacy).
Assays were conducted to assess the channel activity of the recombinant hTRPM8 stably expressed in HEK‐293 cells. HEK‐293‐hTRPM8 cells were cultured in a monolayer using a DMEM GlutaMax with 10% FBS and 1% P/S and maintained at 37 °C in 5% CO2. For experiments, cells were prepared and seeded at the indicated densities. To evaluate compound effectiveness against hTRPM8 activity, microfluorometry‐based calcium flux assays were performed using Fluo‐4 NW Ca^2+ dye and fluorescence detection. HEK cell lines expressing hTRPM8 were seeded in 96‐well plates and incubated with the dye‐loading solution. Ion channel activity was measured using a plate reader, and fluorescence intensity changes were recorded following the addition of vehicle, compound at varying concentrations, and antagonist (10 μM AMTB). Data analysis included calculating the Z‐factor for each assay and normalizing compound effects to […]. Data were analyzed to determine the concentration exerting half‐maximal inhibition (IC50) or activation (EC50) of agonist‐induced calcium elevation, using GRAPHPAD PRISM8® software (Boston, MA, USA). All experiments were conducted in triplicate, and results are presented as mean ± standard deviation.

The subject of assay [2] is oxaliplatin‐induced peripheral cold allodynia in mice. Put plainly: Dry ice test in oxaliplatin-induced cold allodynia. Format: in vivo, mouse. The conditions noted are these: 5 mg·kg^−1 i.p., 30 and 90 min after administration, vs vehicle, oxaliplatin-treated mice. The method, then:
Given the inhibitory activity of compound 23 and the antinociceptive effects of TRPM8 antagonists described in models of oxaliplatin (OXP)‐induced neuropathy, we conducted a behavioral experiment in mice to assess the antinociceptive effects of compound 23 after repeated oxaliplatin administration. Oxaliplatin was intraperitoneally (i.p.) administered every other day for 5 days at 6 mg·kg^−1, reaching a total accumulative dose of 18 mg·kg^−1. […] The OXP‐induced sensitization to cold stimuli was also evident with the dry ice test, as evidenced by the significant reduction in the latency to cold stimulation through the application of a dry ice pellet against the paw on a glass surface (Fig. 8B, P < 0.05 Before OXP vs. After OXP). […]
The systemic effect of compound 23 was assessed after intraperitoneal administration at 5 mg·kg^−1, dissolved in a solution of 2% Cremophor and 5% DMSO in saline, with a volume of 10 mL·kg^−1. […] Nociceptive sensitivity was evaluated for 30‐ and 90‐min postinjection using the acetone drop test (7 days after the first oxaliplatin dose) and the dry ice test (9 days after the last oxaliplatin dose).
The dry ice test was conducted as previously described with some modifications. […] To determine the threshold value for each mouse, the latency to paw withdrawal was recorded for each hindpaw and subsequently averaged. […]

T1 sequence (Q7Z2W7 whole entry): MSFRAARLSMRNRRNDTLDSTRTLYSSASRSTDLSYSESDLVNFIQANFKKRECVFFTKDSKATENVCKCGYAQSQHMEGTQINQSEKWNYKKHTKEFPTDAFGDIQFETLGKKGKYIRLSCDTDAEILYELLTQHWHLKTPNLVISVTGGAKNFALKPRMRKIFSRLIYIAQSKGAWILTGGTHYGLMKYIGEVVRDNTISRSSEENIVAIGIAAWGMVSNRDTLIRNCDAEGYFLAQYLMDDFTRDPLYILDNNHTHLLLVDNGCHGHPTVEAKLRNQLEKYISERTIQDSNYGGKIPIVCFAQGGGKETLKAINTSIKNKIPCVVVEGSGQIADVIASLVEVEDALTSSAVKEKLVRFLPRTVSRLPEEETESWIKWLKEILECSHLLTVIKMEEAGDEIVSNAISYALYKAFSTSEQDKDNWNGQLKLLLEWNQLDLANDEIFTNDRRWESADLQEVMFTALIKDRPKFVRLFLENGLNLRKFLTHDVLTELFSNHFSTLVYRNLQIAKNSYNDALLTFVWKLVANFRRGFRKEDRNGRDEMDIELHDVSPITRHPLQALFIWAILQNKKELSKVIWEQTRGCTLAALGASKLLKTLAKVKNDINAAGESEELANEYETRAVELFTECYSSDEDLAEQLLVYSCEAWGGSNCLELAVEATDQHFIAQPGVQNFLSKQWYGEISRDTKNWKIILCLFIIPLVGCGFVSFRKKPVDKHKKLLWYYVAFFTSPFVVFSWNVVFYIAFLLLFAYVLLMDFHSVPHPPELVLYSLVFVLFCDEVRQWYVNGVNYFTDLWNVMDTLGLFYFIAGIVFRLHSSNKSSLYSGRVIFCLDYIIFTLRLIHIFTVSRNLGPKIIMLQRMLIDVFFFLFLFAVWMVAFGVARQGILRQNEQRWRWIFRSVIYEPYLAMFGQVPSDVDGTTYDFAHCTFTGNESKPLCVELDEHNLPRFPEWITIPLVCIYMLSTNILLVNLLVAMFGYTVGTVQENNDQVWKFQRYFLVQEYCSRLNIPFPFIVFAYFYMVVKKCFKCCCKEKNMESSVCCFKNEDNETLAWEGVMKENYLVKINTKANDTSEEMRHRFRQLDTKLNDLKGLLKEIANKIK

As to `O=C(COC(=O)c1ccccc1-c1ccccc1)NC12CC3CC(CC(C3)C1)C2` [Compound 23, 2‐((3S,5S,7S)‐adamantan‐1‐ylamino)‐2‐oxoethyl [1,1′‐biphenyl]‐2‐carboxylate], the “Activity (agonist/antagonist)” value in assay [1] (hTRPM8-HEK293, agonism = compound-induced Ca2+ influx, antagonism = modulation of WS-12-induced Ca2+ influx) is listed as “Antagonist”. Moreover, the IC50 in assay [1] (hTRPM8-HEK293, block of half channel activity evoked by WS-12, mean ± SD, N = 3, read-out: IC50) came to 200 nM. Also, the Hill coefficient in assay [1] (hTRPM8-HEK293 Ca2+ microfluorimetry dose-response, mean ± SD) is reported as 0.5 ± 0.9. The “effect on withdrawal latency to dry ice, systemic treatment” value in assay [2] is “did not exhibit cold antinociceptive effects; also recorded: did not significantly affect”.
